In US10800755B2, “2,6-disubstituted pyridine derivative” (Sumitomo Dainippon Pharma Co., Ltd., priority 2017, dated 2020):
Where two headings read alike, the source gives them in different places.

Tests used:
human D4 receptor [1] = target: T1, human D4 receptor (Homo sapiens (Human), UniProt P21917); test: Test 1: agonistic activity for human D4 receptor (aequorin/Gα16 luminescence in CHO-K1 cell); format: cell-based; conditions: for D4 agonistic activity Emax / Emax: 100% = 10 μmol/L endogenous ligand; for EC50: CHO-K1 cell, aequorin luminescence; for Emax: CHO-K1
T1 sequence (P21917 whole entry): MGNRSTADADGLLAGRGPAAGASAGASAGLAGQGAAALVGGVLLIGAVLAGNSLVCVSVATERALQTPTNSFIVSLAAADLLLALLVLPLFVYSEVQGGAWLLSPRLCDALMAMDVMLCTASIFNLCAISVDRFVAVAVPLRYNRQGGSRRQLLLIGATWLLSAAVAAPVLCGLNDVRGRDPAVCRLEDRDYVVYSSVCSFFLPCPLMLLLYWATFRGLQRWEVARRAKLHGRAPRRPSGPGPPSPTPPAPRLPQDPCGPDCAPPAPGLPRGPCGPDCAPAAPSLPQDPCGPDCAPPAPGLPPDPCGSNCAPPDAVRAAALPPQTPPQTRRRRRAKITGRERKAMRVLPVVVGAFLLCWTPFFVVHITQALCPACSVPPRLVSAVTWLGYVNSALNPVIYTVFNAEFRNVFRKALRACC
Description: (§1) Test 1: Evaluation of Agonistic Activity for Human 5-HT1A Receptor and Human D4 Receptor
(§2) Aequorin, Gα16 proteins, and each receptor were transiently expressed in CHO-K1 cell (Chinese hamster ovary), and seeded to 384-well plate. The plate was incubated in a CO2 incubator at 37° C. for 24 hours. Each example compound dissolved in DMSO was added thereto, and the change of luminescence amount was measured with Hamamatsu FDSS/μCELL System (Hamamatsu Photonics).

human D2 receptor = human D2 receptor (Homo sapiens (Human), UniProt P14416); test: Test 2: binding activity to human D2 receptor ([3H] spiperone, CHO cell membrane); conditions: [3H] spiperone; read-out: D2 binding affinity (Ki value)
Chain of human D2 receptor (P14416 whole entry): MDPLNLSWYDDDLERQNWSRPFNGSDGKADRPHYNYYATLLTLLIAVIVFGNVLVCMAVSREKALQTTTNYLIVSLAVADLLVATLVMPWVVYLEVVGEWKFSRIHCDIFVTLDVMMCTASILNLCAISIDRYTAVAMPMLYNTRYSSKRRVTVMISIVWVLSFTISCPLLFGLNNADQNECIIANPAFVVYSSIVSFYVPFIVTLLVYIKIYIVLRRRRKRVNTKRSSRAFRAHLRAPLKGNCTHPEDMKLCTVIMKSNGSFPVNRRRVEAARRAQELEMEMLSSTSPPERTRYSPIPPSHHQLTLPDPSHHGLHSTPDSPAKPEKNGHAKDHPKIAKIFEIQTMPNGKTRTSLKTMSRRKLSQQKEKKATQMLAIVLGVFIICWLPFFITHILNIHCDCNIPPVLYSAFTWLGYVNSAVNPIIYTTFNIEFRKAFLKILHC
Description: (§3) Test 2: Evaluation of Binding Activity to Human 5-HT1A Receptor, Human D4 Receptor, and Human D2 Receptor
(§4) CHO cell membrane fraction in which human 5-HT1A receptor, human D4 receptor, and human D2 receptor were expressed was purchased from PerkinElmer Co., Ltd. In the evaluation test of binding, the test compound dissolved in DMSO, each receptor membrane preparation diluted with buffer solution, and [3H] […] The nonspecific binding to each receptor was evaluated by a competition binding experiment in the presence of 10 μmol/L 8-OH-DPAT, 10 μmol/L dopamine, or 10 μmol/L spiperone, respectively.

human 5-HT1A receptor [2] = target: T2, human 5-HT1A receptor (Homo sapiens (Human), UniProt P08908); test: Test 2: binding activity to human 5-HT1A receptor ([3H] 8-OH-DPAT, CHO cell membrane); conditions: [3H] 8-OH-DPAT; read-out: 5-HT1A binding affinity (Ki value)
T2 sequence (P08908 whole entry): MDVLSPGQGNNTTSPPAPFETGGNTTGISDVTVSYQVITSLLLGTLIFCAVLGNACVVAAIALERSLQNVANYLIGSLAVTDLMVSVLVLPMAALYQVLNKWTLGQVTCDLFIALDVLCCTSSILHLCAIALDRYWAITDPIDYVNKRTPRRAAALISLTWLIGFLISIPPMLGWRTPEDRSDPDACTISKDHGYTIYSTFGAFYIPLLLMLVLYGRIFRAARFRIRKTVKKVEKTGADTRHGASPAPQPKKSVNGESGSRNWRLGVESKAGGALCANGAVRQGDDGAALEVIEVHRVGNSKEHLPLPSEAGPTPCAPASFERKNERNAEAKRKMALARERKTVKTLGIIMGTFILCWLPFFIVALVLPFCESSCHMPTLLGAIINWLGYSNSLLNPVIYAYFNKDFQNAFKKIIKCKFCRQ
Description: as §3, §4

human D4 receptor [3] = target: T1, human D4 receptor; test: Test 2: binding activity to human D4 receptor ([3H] dopamine, CHO cell membrane)
Description: as §3, §4

[4] = Test 3-1: metabolic stability test of human liver microsome (0.1 mg/mL); format: in vitro ADME; conditions: test compound 0.1 μmol/L, 37° C., 30 minutes
Description: Test 3-1: Metabolic Stability Test of Human Liver Microsome
The stability of the present compounds for human liver microsome metabolism was evaluated as mentioned below. The used human liver microsome was obtained from Xenontech. Human liver microsome, NADPH, and each test compound were mixed in 25 mmol/L phosphate buffer solution (pH 7.4) to adjust each concentration as shown below, and the mixture was incubated at 37° C. for 30 minutes. • human liver microsome: 0.1 mg/mL • NAPDH: 3.2 mmol/L • test compound: 0.1 μmol/L
The residual ratio of the test compound in each sample after the incubation for 30 minutes was measured with a LC-MS, and the metabolic stability of human liver microsome was calculated about each test compound with the following formula. Metabolic stability of human liver microsome (mL/min/mg protein)=−LN (residual ratio)/“reaction time”/“concentration of human liver microsome”

human 5-HT1A receptor [5] = target: T2, human 5-HT1A receptor; test: Test 1: agonistic activity for human 5-HT1A receptor (aequorin/Gα16 luminescence in CHO-K1 cell); format: cell-based; conditions: for 5-HT1A agonistic activity Emax / Emax: 100% = 10 μmol/L endogenous ligand; for EC50: CHO-K1 cell, aequorin luminescence; for Emax: CHO-K1
Description: as §1, §2

hERG channel [6] = target: T3, hERG channel (Homo sapiens (Human), UniProt Q12809); test: Test 5-1: activity for inhibiting hERG channel (whole-cell patch clamp, hERG-CHO cell, Qpatch); format: cell-based; conditions: read-out: hERG inhibition IC50
T3 sequence (Q12809 whole entry): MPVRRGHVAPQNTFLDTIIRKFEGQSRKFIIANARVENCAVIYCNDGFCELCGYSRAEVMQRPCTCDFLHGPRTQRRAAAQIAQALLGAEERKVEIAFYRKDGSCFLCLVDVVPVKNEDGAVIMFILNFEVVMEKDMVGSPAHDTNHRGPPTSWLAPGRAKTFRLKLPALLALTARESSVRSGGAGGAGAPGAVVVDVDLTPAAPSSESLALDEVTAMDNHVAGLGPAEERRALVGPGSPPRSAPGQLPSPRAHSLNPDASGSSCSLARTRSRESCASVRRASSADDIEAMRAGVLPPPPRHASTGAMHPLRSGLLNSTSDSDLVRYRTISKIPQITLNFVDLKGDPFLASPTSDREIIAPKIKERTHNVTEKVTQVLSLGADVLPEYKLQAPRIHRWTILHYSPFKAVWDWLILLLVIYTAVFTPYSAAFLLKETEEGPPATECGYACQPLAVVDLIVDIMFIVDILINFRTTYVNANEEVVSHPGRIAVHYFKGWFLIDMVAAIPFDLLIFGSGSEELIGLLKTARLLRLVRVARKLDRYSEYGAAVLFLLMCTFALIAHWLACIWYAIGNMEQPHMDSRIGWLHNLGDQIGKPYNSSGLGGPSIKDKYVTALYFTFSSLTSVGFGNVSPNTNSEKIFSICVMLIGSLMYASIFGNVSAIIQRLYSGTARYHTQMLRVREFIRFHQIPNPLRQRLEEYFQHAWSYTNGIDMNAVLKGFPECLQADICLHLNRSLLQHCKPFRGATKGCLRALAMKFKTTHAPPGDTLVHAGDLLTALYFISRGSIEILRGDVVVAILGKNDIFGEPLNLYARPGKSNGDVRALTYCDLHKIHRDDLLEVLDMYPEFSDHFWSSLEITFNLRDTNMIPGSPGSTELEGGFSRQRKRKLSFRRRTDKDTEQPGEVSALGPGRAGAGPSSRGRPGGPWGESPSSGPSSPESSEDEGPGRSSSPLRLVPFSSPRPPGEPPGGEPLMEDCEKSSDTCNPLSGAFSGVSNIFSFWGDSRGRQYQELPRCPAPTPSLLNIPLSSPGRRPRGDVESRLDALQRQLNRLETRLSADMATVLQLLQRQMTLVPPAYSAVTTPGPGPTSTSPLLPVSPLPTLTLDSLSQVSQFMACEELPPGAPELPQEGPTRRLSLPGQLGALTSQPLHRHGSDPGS
Description: Test 5-1: Evaluation of Activity for Inhibiting hERG Channel
(§5) The activity of the present compound for inhibiting hERG channel was measured by whole-cell patch clamp method with auto patch clamp system, using CHO cell wherein hERG channel involved in human rapidly activating delayed rectifier potassium current (IKr) was forcibly expressed.
(§6) hERG-CHO cell purchased from ChanTest was incubated at 37° C. in a CO2 incubator, and the cell was exfoliated from the flask with trypsin to prepare a cell suspension, shortly before the hERG current measurement.
(§7) Extracellular fluid: 2 mmol/L CaCl2, 1 mmol/L MgCl2, 10 mmol/L HEPES, 4 mmol/L KCl, 145 mmol/L NaCl, 10 mmol/L glucose
Intracellular fluid: 5.4 mmol/L CaCl2, 1.8 mmol/L MgCl2, 10 mmol/L HEPES, 31 mmol/L KOH, 10 mmol/L EGTA, 120 mmol/L KCl, 4 mmol/L Na2-ATP
Test compound solution: The test compound was dissolved in DMSO by adjusting the concentration to 2 mmol/L or 20 mmol/L to prepare each test compound solution. […] (Measurement of Current Value and Data Analysis)
The cell suspension, the extracellular fluid, the intracellular fluid, and the measurement plate were set in an auto patch clamp system, and the hERG current was measured by whole-cell patch clamp method. […] Each pulse interval was 15 seconds. The data analysis was carried out with Qpatch Assay Software (Biolin Scientific). The test was carried out applying increscently 4 concentrations of each test compound, and the average of the peak tail currents that were obtained by the last 3 stimulations in each applied concentration was determined to be the evaluated data. By using the current inhibition rate for the pre-applied current at each concentration of each test compound, IC50 value was calculated by Hill equation with the software.

hERG channel [7] = target: T3, hERG channel; test: Test 5-2: activity for inhibiting hERG channel (whole-cell patch clamp, hERG-CHO cell, Qube); format: cell-based; conditions: read-out: hERG inhibition IC50
Description: Test 5-2: Evaluation of Activity for Inhibiting hERG Channel
as §5, §6, §7
Intracellular fluid: 10 mmol/L HEPES, 10 mmol/L EGTA, 20 mmol/L KCl, 130 mmol/L KF
Test compound solution: The compound was dissolved in DMSO by adjusting the concentration to 2 mmol/L or 20 mmol/L to prepare each test compound solution. […] (Measurement of Current Value and Data Analysis)
The cell suspension, the extracellular fluid, the intracellular fluid, and the measurement plate were set in an auto patch clamp system, and the hERG current was measured by whole-cell patch clamp method. The voltage-protocol was as follows: the holding potential was adjusted to −80 mV, the depolarizing pulse was added at −50 mV to +20 mV for 5 seconds, the repolarizing pulse was added at −50 mV for 5 seconds, then the potential was returned to the holding potential. Each pulse interval was 15 seconds. The data analysis was carried out with Qube Assay Software (Sophion Scientific). The test was carried out applying increscently 4 concentrations of each test compound, and the average of the peak tail currents that were obtained by the last 3 stimulations in each applied concentration was made to be the evaluated data. By using the current inhibition rate for the pre-applied current at each concentration of each test compound, IC50 value was calculated by Hill equation with the software.

[8] = [3H] dopamine, read-out: D4 binding affinity (Ki value)

Row | Compound | D4 agonistic activity Emax (human D4 receptor [1]) | EC50 (human D4 receptor [1]) | Ki (human D2 receptor) | Ki (human 5-HT1A receptor [2]) | Ki (human D4 receptor [3]; [8]) | Metabolic stability of human liver microsome [4] | 5-HT1A agonistic activity Emax (human 5-HT1A receptor [5]) | EC50 (human 5-HT1A receptor [5]) | Emax (human D4 receptor [1]) | Emax (human 5-HT1A receptor [5]) | IC50 (hERG channel [6]) | IC50 (hERG channel [7]) | Ki (human D4 receptor [3])
1 | O=C(NCCN1CCC(c2cccc(C(F)(F)F)n2)CC1)C1CCCOC1 (stereo not drawn) [Example 2] | 61% | 58.9 nM | > 10000 nM | 11 nM | 109 nM | 0.069 mL/min/mg protein | 86% | 323 nM |  |  | > 10000 nM |  | 
2 | Cc1cccc(C2CCN(CCNC(=O)C3CCC(F)(F)CC3)CC2)n1 [Example 4] | 71% | 25.1 nM | > 10000 nM | 0.4 nM | 26 nM | <0.01 mL/min/mg protein | 90% | < 10 nM |  |  | 4000 nM |  | 
3 | COCC1(C(=O)NCCN2CCC(c3cccc(C(F)(F)F)n3)CC2)CC1 [Example 7] | 58% | < 10 nM | > 10000 nM | 13 nM | 43 nM | 0.017 mL/min/mg protein | 106% | < 10 nM |  |  | 5600 nM |  | 
4 | O=C(NCCN1CCC(c2cccc(OC(F)(F)F)n2)CC1)C1CCOCC1 [Example 28] |  | 37 nM | 2470 nM | 28 nM | 104 nM | <0.05 mL/min/mg protein |  | 47 nM | 44% | 69% |  | > 10000 nM | 
5 | Cc1cccc(C2=CCN(CCNC(=O)C3CCOCC3)CC2)n1 [Example 29, N-[2-(6-Methyl-3′,6′-dihydro[2,4′-bipyridin]-1′(2′H)-yl)ethyl]-tetrahydro-2H-pyran-4-carboxamide] |  | 24 nM | > 10000 nM | 0.4 nM |  | <0.05 mL/min/mg protein |  | < 10 nM | 74% | 50% |  | > 10000 nM | 22 nM
6 | Cc1cccc(C2=CCN(CCNC(=O)C(C)(C)C)CC2)n1 [Example 30, 2,2-Dimethyl-N-[2-(6-methyl-3′,6′-dihydro[2,4′-bipyridin]-1′ (2′H)-yl)ethyl]propanamide] |  | < 10 nM | > 10000 nM | 1.4 nM |  | 0.114 mL/min/mg protein |  | 27 nM | 59% | 36% |  | > 10000 nM | 14 nM
7 | CC(C)(C)C(=O)NCCN1CC=C(c2cccc(C(F)(F)F)n2)CC1 [Example 31, 2,2-Dimethyl-N-{2-[6-(trifluoromethyl)-3′,6′-dihydro[2,4′-bipyridin]-1′ (2′H)-yl]ethyl}propanamide] |  | < 10 nM | 1280 nM | 0.3 nM |  | <0.05 mL/min/mg protein |  | 35 nM | 52% | 40% |  | > 10000 nM | 2.9 nM

Second part, led by results:

Row | D4 agonistic activity Emax (human D4 receptor [1]) | EC50 (human D4 receptor [1]) | Ki (human D2 receptor) | Ki (human 5-HT1A receptor [2]) | Ki (human D4 receptor [3]; [8]) | Metabolic stability of human liver microsome [4] | 5-HT1A agonistic activity Emax (human 5-HT1A receptor [5]) | EC50 (human 5-HT1A receptor [5]) | Emax (human D4 receptor [1]) | Emax (human 5-HT1A receptor [5]) | Compound | IC50 (hERG channel [6]) | IC50 (hERG channel [7]) | Ki (human D4 receptor [3])
8 | 76% | 33.5 nM | > 10000 nM | 7.1 nM | 198 nM | <0.01 mL/min/mg protein |  | 38 nM |  |  | Cc1cccc(C2CCN(CCNC(=O)C3CC4CCC3O4)CC2)n1 (stereo not drawn) [Example 3] | 32100 nM |  | 
9 | 85% |  |  |  |  | 0.015 mL/min/mg protein | 90% |  |  |  | Cc1cccc(C2CCN(CCNC(=O)C(C)(C)C)CC2)n1 [Example 10] | > 10000 nM |  | 
10 |  | 30 nM | 3330 nM | 20 nM | 423 nM | <0.05 mL/min/mg protein |  | 67 nM | 49% | 46% | O=C(NCCN1CCC(c2cccc(C(F)(F)F)n2)CC1)C1CCCO1 (stereo not drawn) [Example 25] |  | > 10000 nM | 
11 |  | 13 nM | > 10000 nM | 21 nM | 119 nM | <0.05 mL/min/mg protein |  | 22 nM | 62% | 83% | COc1cccc(C2CCN(CCNC(=O)C3CCOCC3)CC2)n1 [Example 33] |  | > 10000 nM | 
12 |  | 15 nM | > 10000 nM | 10 nM | 56 nM | <0.05 mL/min/mg protein |  | 22 nM | 55% | 42% | O=C(NCCN1CCC(c2cccc(C(F)F)n2)CC1)C1CCOCC1 [Example 34] |  | 5500 nM | 
13 |  | 42 nM | > 10000 nM | 37 nM | 10 nM | <0.05 mL/min/mg protein |  | 86 nM | 35% | 50% | CN(C)c1cccc(C2CCN(CCNC(=O)C3CCOCC3)CC2)n1 [Example 38, N-(2-{4-[6-(Dimethylamino)pyridin-2-yl]piperidin-1-yl}ethyl)-tetrahydro-2H-pyran-4-carboxamide] |  | > 10000 nM | 
